± gives the standard deviation of the averaged measurements.

Surviving fraction data for seven test systems are collected here from the supplement of paper PMC6045584.

Compound in assay [1]: C[C@]1(O)C[C@@H](c2nc(-c3ccc4ccc(-c5ccccc5)nc4c3)c3c(N)nccn32)C1 [OSI-906]
Put plainly: surviving fraction relative to DMSO-only wells; higher = less growth inhibition. Particulars: exposure time: 5 days. An outline of the steps: (§1)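 Five days of continuous inhibitor exposure, at 0.5, 1, 5, 10, 50, 100, 500 and 1000 nM, followed a 24-hour period after log-phase tumour cell lines were seeded at 250–500 cells per well in 384-well plates. Surviving fraction was derived from CellTiter-Glo luminescence relative to the median of DMSO-only wells. Plates were read after 10 minutes at room temperature, and lines screened three times were kept only if replicate Pearson r >0.7 and median Z' >0.3.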

Compound in assay [2]: COCC[n+]1c2c(n(Cc3cnccn3)c1C)C(=O)c1ccccc1C2=O [YM155]
The assay is described as above. Particulars: exposure time: 5 days. An outline of the steps:
as §1

For SCC90 HEADNECK, the surviving fraction in assay [1] (0.5 nM) was 0.88 ± 0.033; in assay [1] (1 nM), 0.822 ± 0.075; in assay [1] (5 nM), 0.89 ± 0.096; in assay [1] (10 nM) it was 0.883 ± 0.026; in assay [1] (50 nM) it was 1.03 ± 0.098; in assay [1] (100 nM), 1.02 ± 0.027. In addition, the surviving fraction in assay [1] (500 nM) came to 0.971 ± 0.019; in assay [1] (1000 nM) it was 0.981 ± 0.078; in assay [2] (0.5 nM) it was 0.914 ± 0.097; in assay [2] (1 nM), 0.937 ± 0.021; in assay [2] (5 nM), 1.08 ± 0.1; in assay [2] (10 nM), 1.1 ± 0.037. Further, the surviving fraction in assay [2] (50 nM) came out at 0.676 ± 0.085; in assay [2] (100 nM), 0.276 ± 0.039; in assay [2] (500 nM) it was 0.0483 ± 0.0067; in assay [2] (1000 nM) it was 0.0363 ± 0.0031.

As for HCC202 BREAST, the surviving fraction in assay [1] (0.5 nM) was determined as 0.918 ± 0.1; in assay [1] (1 nM) it was 0.867 ± 0.2; in assay [1] (5 nM) it was 0.966 ± 0.052; in assay [1] (10 nM) it was 0.8315 ± 0.0035; in assay [1] (50 nM), 1.1 ± 0.021; in assay [1] (100 nM), 1.07 ± 0.15. Further, the surviving fraction in assay [1] (500 nM) was 0.862 ± 0.18; in assay [1] (1000 nM) it was 0.839 ± 0.18; in assay [2] (0.5 nM), 1.19 ± 0.025; in assay [2] (1 nM) it was 1.13 ± 0.014; in assay [2] (5 nM) it was 1.34 ± 0.26; in assay [2] (10 nM) it was 1.31 ± 0.22. Moreover, the surviving fraction in assay [2] (50 nM) stood at 0.411 ± 0.17; in assay [2] (100 nM), 0.231 ± 0.037; in assay [2] (500 nM), 0.0315 ± 0.00071; in assay [2] (1000 nM) it was 0.0335 ± 0.0021.

MHM BONE: the surviving fraction was determined as 0.996 ± 0.021 in assay [1] (0.5 nM); 0.978 ± 0.026 in assay [1] (1 nM); 1.03 ± 0.025 in assay [1] (5 nM); 0.999 ± 0.032 in assay [1] (10 nM); 0.91 ± 0.05 in assay [1] (50 nM); 0.872 ± 0.013 in assay [1] (100 nM). The surviving fraction in assay [1] (500 nM) was determined as 0.78 ± 0.022; in assay [1] (1000 nM), 0.721 ± 0.018; in assay [2] (0.5 nM) it was 0.972 ± 0.013; in assay [2] (1 nM), 0.998 ± 0.021; in assay [2] (5 nM), 1.01 ± 0.011; in assay [2] (10 nM) it was 1.05 ± 0.016. The surviving fraction was 0.299 ± 0.013 in assay [2] (50 nM), 0.202 ± 0.0085 in assay [2] (100 nM), 0.0287 ± 0.0011 in assay [2] (500 nM) and 0.0323 ± 0.00058 in assay [2] (1000 nM).

Turning to SUM159 BREAST, the surviving fraction stood at 0.9647 ± 0.0076 in assay [1] (0.5 nM); 0.948 ± 0.021 in assay [1] (1 nM); 0.964 ± 0.021 in assay [1] (5 nM); 0.944 ± 0.036 in assay [1] (10 nM); 0.977 ± 0.013 in assay [1] (50 nM); 0.95 ± 0.021 in assay [1] (100 nM). For the same test system, the surviving fraction in assay [1] (500 nM) is 0.953 ± 0.012; in assay [1] (1000 nM), 0.927 ± 0.016; in assay [2] (0.5 nM), 0.994 ± 0.042; in assay [2] (1 nM), 1.02 ± 0.032; in assay [2] (5 nM), 0.536 ± 0.072; in assay [2] (10 nM) it was 0.537 ± 0.057. Besides, the surviving fraction in assay [2] (50 nM) is 0.069 ± 0.0098; in assay [2] (100 nM), 0.0383 ± 0.0015; in assay [2] (500 nM), 0.0217 ± 0.00058; in assay [2] (1000 nM), 0.0273 ± 0.00058.

In the case of SUM149.B1*.S BREAST, the surviving fraction in assay [1] (0.5 nM) amounted to 0.935 ± 0.025; in assay [1] (1 nM), 0.927 ± 0.032; in assay [1] (5 nM), 0.92 ± 0.041; in assay [1] (10 nM), 0.926 ± 0.025; in assay [1] (50 nM), 0.974 ± 0.037; in assay [1] (100 nM) it was 0.947 ± 0.004. Moreover, the surviving fraction in assay [1] (500 nM) came to 0.943 ± 0.032; in assay [1] (1000 nM), 0.888 ± 0.057; in assay [2] (0.5 nM), 0.847 ± 0.051; in assay [2] (1 nM) it was 1.02 ± 0.068; in assay [2] (5 nM), 0.903 ± 0.068; in assay [2] (10 nM) it was 0.583 ± 0.058. Further, the surviving fraction stood at 0.0738 ± 0.0063 in assay [2] (50 nM), 0.0278 ± 0.0019 in assay [2] (100 nM), 0.0225 ± 0.00087 in assay [2] (500 nM) and 0.0277 ± 0.0011 in assay [2] (1000 nM).

Take MDAMB468 BREAST: the surviving fraction in assay [1] (0.5 nM) came out at 0.867 ± 0.12; in assay [1] (1 nM), 0.833 ± 0.13; in assay [1] (5 nM) it was 0.95 ± 0.032; in assay [1] (10 nM), 0.955 ± 0.092; in assay [1] (50 nM) it was 1.06 ± 0.087; in assay [1] (100 nM) it was 1.03 ± 0.036. Besides, the surviving fraction came to 0.851 ± 0.09 in assay [1] (500 nM); 0.846 ± 0.019 in assay [1] (1000 nM); 0.953 ± 0.021 in assay [2] (0.5 nM); 0.901 ± 0.035 in assay [2] (1 nM); 0.325 ± 0.039 in assay [2] (5 nM); 0.0717 ± 0.0067 in assay [2] (10 nM). The surviving fraction in assay [2] (50 nM) was found to be 0.034 ± 0.002; in assay [2] (100 nM), 0.0367 ± 0.0031; in assay [2] (500 nM), 0.0353 ± 0.0065; in assay [2] (1000 nM), 0.0377 ± 0.0021.

MDAMB361 BREAST: the surviving fraction in assay [1] (0.5 nM) was determined as 0.669 ± 0.025; in assay [1] (1 nM), 0.682 ± 0.024; in assay [1] (5 nM), 0.721 ± 0.04; in assay [1] (10 nM) it was 0.741 ± 0.061; in assay [1] (50 nM), 0.847 ± 0.067; in assay [1] (100 nM) it was 0.842 ± 0.011. The surviving fraction in assay [1] (500 nM) amounted to 0.758 ± 0.015; in assay [1] (1000 nM), 0.797 ± 0.033; in assay [2] (0.5 nM), 0.869 ± 0.069; in assay [2] (1 nM), 0.826 ± 0.073; in assay [2] (5 nM), 0.919 ± 0.23; in assay [2] (10 nM), 0.549 ± 0.041. For the same test system, the surviving fraction in assay [2] (50 nM) worked out at 0.224 ± 0.0076; in assay [2] (100 nM), 0.191 ± 0.022; in assay [2] (500 nM), 0.103 ± 0.0066; in assay [2] (1000 nM), 0.0887 ± 0.0074.
